Counter-ions that a name gives are not always drawn.
Target: USP7 (Homo sapiens, UniProt Q93009)
Assay: biochemical
Design: Ub-AMC hydrolysis by recombinant USP7 (20 nM), 30 min pre-incubation, fluorescence read-out
Details: read-out: % Inhibition at 50 μM

USP7, sequence (Q93009 whole entry): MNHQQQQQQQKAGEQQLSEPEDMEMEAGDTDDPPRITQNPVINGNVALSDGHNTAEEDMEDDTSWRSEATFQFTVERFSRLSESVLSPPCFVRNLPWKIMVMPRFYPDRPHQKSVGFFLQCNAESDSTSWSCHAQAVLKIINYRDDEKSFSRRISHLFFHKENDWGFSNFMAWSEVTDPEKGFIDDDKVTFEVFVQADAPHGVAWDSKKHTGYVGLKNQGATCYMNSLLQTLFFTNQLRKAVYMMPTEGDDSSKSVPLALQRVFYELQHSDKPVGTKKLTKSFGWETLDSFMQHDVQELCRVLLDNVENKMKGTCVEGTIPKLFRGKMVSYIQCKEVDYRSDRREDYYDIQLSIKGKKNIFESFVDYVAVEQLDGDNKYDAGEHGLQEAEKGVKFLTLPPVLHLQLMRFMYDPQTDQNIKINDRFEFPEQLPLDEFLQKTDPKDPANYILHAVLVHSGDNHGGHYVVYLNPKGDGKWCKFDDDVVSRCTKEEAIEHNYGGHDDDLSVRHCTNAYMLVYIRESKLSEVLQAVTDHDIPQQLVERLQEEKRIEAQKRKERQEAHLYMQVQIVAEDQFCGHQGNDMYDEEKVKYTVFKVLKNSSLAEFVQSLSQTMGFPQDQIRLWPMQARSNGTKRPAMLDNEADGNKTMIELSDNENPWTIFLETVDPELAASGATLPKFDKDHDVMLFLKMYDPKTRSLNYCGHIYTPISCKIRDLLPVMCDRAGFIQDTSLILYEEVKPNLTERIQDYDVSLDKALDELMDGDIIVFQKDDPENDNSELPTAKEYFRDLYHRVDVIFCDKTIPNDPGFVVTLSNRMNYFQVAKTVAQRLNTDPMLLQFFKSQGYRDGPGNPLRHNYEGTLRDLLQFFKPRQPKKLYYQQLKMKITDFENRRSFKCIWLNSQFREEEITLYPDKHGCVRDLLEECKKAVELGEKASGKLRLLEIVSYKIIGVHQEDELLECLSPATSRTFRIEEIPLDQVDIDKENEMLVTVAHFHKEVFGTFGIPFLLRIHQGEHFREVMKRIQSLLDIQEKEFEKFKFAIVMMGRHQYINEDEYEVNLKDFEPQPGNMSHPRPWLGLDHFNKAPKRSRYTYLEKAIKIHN

Row | SMILES | inhibition at 50 µM [%]
1 | CO[C@H](C(=O)[C@@H](O)[C@@H](C)O)[C@@H]1Cc2cc3cc(O[C@H]4C[C@@H](O[C@@H]5C[C@@H](O)[C@H](O)[C@@H](C)O5)[C@H](O)[C@@H](C)O4)c(C)c(O)c3c(O)c2C(=O)[C@H]1O[C@H]1C[C@@H](O[C@@H]2C[C@@H](O)[C@@H](O[C@@H]3C[C@](C)(O)[C@H](O)[C@@H](C)O3)[C@@H](C)O2)[C@H](O)[C@@H](C)O1 [Plicamycin] | < 5
2 | COc1ncnc(NS(=O)(=O)c2ccc(N)cc2)c1OC [Sulfadoxine] | < 5
3 | CN[C@@H]1[C@H](O)[C@H](NC)[C@H]2O[C@@]3(O)C(=O)C[C@@H](C)O[C@H]3O[C@@H]2[C@H]1O [Spectinomycin] | < 5
4 | NC1CCN(c2c(F)cc3c(=O)c(C(=O)O)cn(C4CC4)c3c2Cl)C1 (stereo not drawn) [Clinafloxacin HCl] | < 5
5 | C[C@H]1O[C@@H](n2cc(F)c(=O)[nH]c2=O)[C@H](O)[C@@H]1O [Doxifluridine] | < 5
6 | COc1ccc(C(=O)N2CCCC2=O)cc1 [Aniracetam] | < 5
7 | COc1cc2c(cc1OC)C(=O)C(CC1CCN(Cc3ccccc3)CC1)C2 (stereo not drawn) [Donepezil HCl] | < 5
8 | CC[C@H](C)C(=O)O[C@H]1CCC=C2C=C[C@H](C)[C@H](CC[C@@H]3C[C@@H](O)CC(=O)O3)[C@H]21 [Mevastatin] | < 5
9 | c1ccc([C@H]2CN3CCSC3=N2)cc1 [Levamisole HCl] | < 5
10 | CCCCC(C)(O)C/C=C/[C@H]1[C@H](O)CC(=O)[C@@H]1CCCCCCC(=O)OC (mixture of isomers) [Misoprostol] | < 5
11 | CC12CC3CC(C)(C1)CC(N)(C3)C2 [Memantine HCl] | < 5
12 | CN(CCOc1ccc(NS(C)(=O)=O)cc1)CCc1ccc(NS(C)(=O)=O)cc1 [Dofetilide] | < 5
13 | CC(C)(Oc1ccc(CCNC(=O)c2ccc(Cl)cc2)cc1)C(=O)O [Bezafibrate] | < 5
14 | CN1[C@@H]2CC[C@H]1C[C@@H](OC(=O)C(CO)c1ccccc1)C2 (stereo partly drawn) [Atropine sulfate] | < 5
15 | CC(N/C(=N\C#N)Nc1ccncc1)C(C)(C)C (stereo not drawn) [Pinacidil] | < 5
16 | CCCCC[C@H](O)/C=C/[C@H]1[C@H](O)CC(=O)[C@@H]1C/C=C\CCCC(=O)O [Dinoprostone] | 6.5
17 | COC(=O)[C@H](c1ccccc1Cl)N1CCc2sccc2C1 [Clopidogrel sulfate] | < 5
18 | O=C1CN2Cc3c(ccc(Cl)c3Cl)N=C2N1 [Anagrelide] | 8.4
19 | CC(C)(C)[C@]1(O)CCN2C[C@H]3c4ccccc4CCc4cccc(c43)[C@@H]2C1 [Butaclamol (+)] | < 5
20 | CS(=O)(=O)CCNCc1ccc(-c2ccc3ncnc(Nc4ccc(OCc5cccc(F)c5)c(Cl)c4)c3c2)o1 [Lapatinib] | < 5
21 | COC(=O)CCc1ccc(OCC(O)CNC(C)C)cc1 (stereo not drawn) [Esmolol] | < 5
22 | CNCCCC12CCC(c3ccccc31)c1ccccc12 [Maprotiline HCl] | 11.3
23 | CC(=O)O[C@]1(C(C)=O)CC[C@H]2[C@@H]3C[C@H](C)C4=CC(=O)CC[C@]4(C)[C@H]3CC[C@@]21C [Medroxyprogesterone 17-acetate] | < 5
24 | CC(NC(C)(C)C)C(=O)c1cccc(Cl)c1 (stereo not drawn) [Amfebutamone] | < 5
25 | CN1CCc2cccc3c2[C@H]1Cc1ccc(O)c(O)c1-3 [Apomorphine r (-)] | < 5
26 | CC(C)CC(N(C)C)C1(c2ccc(Cl)cc2)CCC1 (stereo not drawn) [Sibutramine HCl] | < 5

Row | SMILES | inhibition at 50 µM [%]
27 | CCC[C@@H]1C[C@@H](C(=O)N[C@@H]([C@H]2O[C@H](SC)[C@H](O)[C@@H](O)[C@H]2O)[C@@H](C)O)N(C)C1 [Lincomycin] | < 5
28 | COC(=O)c1ccc(O)c2nc3c(C=O)c(O)cc(O)c3nc12 [Lomofungin] | < 5
29 | C[N+](C)(C)CCOC(=O)CCC(=O)OCC[N+](C)(C)C [Succinylcholine] | < 5
30 | N[C@@H]1C[C@H]1c1ccccc1 (racemic) [Tranylcypromine] | < 5
31 | C[C@H]1C[C@@H]2[C@H]([C@@H](O)C[C@@]3(C)[C@H]2CC[C@]3(O)C(=O)CO)[C@@]2(C)C=CC(=O)C=C12 [Methylprednisolone] | < 5
32 | CCOC(=O)[N-]c1c[n+](N2CCOCC2)no1 [Molsidomine] | < 5
33 | COc1cc([C@@H]2c3cc4c(cc3[C@@H](O[C@@H]3O[C@@H]5CO[C@@H](C)O[C@H]5[C@H](O)[C@H]3O)[C@H]3COC(=O)[C@H]23)OCO4)cc(OC)c1O [Etoposide] | < 5
34 | O=C1CC[C@@]2(O)[C@H]3Cc4ccc(O)c5c4[C@@]2(CCN3CC2CC2)[C@H]1O5 [Naltrexone HCl] | < 5
35 | CN(C/C=C/C#CC(C)(C)C)Cc1cccc2ccccc12 [Terbinafine HCl] | 8.6
36 | O=C(CCCN1CCC(O)(c2cccc(C(F)(F)F)c2)CC1)c1ccc(F)cc1 [Trifluperidol 2HCl] | < 5
37 | Cc1c(C)c2c(c(C)c1O)CCC(C)(COc1ccc(CC3SC(=O)NC3=O)cc1)O2 (stereo not drawn) [Troglitazone] | 5.3
38 | O=C(O)c1cc(-c2ccc(F)cc2F)ccc1O [Diflunisal] | 31.5
39 | CCN(CC)CCCC(C)Nc1c2ccc(Cl)cc2nc2ccc(OC)cc12 (stereo not drawn) [Quinacrine 2HCl dihydrate] | < 5
40 | CCOC(=O)[C@H](CCc1ccccc1)N[C@@H](C)C(=O)N1Cc2ccccc2C[C@H]1C(=O)O [Quinapril HCl] | < 5
41 | CCc1nn(CCCN2CCN(c3cccc(Cl)c3)CC2)c(=O)n1CCOc1ccccc1 [Nefazodone] | < 5
42 | O=C(O)COCCN1CCN(C(c2ccccc2)c2ccc(Cl)cc2)CC1 (stereo not drawn) [Cetirizine 2HCl] | < 5
43 | CCOC(=O)C1=C(C)NC(C)=C(C(=O)OC)C1c1cccc(Cl)c1Cl (stereo not drawn) [Felodipine] | 7.9
44 | CCCCCOC(=O)Nc1nc(=O)n([C@@H]2O[C@H](C)[C@@H](O)[C@H]2O)cc1F [Capecitabine] | < 5
45 | COc1ccccc1O [Guaiacol] | < 5
46 | CCOc1nc2cccc(C(=O)O)c2n1Cc1ccc(-c2ccccc2-c2nnn[nH]2)cc1 [Candesartan] | < 5
47 | Clc1ccc(Nc2nnc(Cc3ccncc3)c3ccccc23)cc1 [Vatalanib] | < 5
48 | CC(C)NCC(O)c1ccc(N)c(C#N)c1 (stereo not drawn) [Cimaterol] | < 5
49 | Oc1ncnc2[nH]ncc12 [Allopurinol] | < 5
50 | Cc1[nH]c(=O)c(C#N)cc1-c1ccncc1 [Milrinone] | < 5
51 | O=P(O)(O)C(O)(Cn1ccnc1)P(=O)(O)O [Zoledronic acid] | < 5
52 | Nc1nc2c(ncn2COCCO)c(=O)[nH]1 [Acycloguanosine] | < 5

Row | SMILES | inhibition at 50 µM [%]
53 | Cc1cccc(C)c1NC1=NCCCS1 [Xylazine HCl] | < 5
54 | CNC(=C[N+](=O)[O-])NCCSCc1ccc(CN(C)C)o1 [Ranitidine HCl] | < 5
55 | CN/C(=N\CCSCc1nc[nH]c1C)NC#N [Cimetidine] | < 5
56 | C[C@H]1[C@H](C)CC[C@]2(C(=O)O)CC[C@]3(C)C(=CC[C@@H]4[C@@]5(C)C[C@@H](O)[C@H](O)[C@@](C)(CO)[C@@H]5[C@H](O)C[C@]43C)[C@H]12 [Madecassic acid] | < 5
57 | CC(C)NCC(O)c1ccc(O)c(O)c1 (racemic) [Isoproterenol HCl (rac)] | < 5
58 | C#C[C@]1(O)CC[C@H]2[C@@H]3CCC4=CC(=O)CC[C@@H]4[C@H]3CC[C@@]21CC [Levonorgestrel] | < 5
59 | O=C(c1ccc(OCCN2CCCCC2)cc1)c1c(-c2ccc(O)cc2)sc2cc(O)ccc12 [Raloxifene HCl] | < 5
60 | CO[C@@]12[C@H](COC(N)=O)C3=C(C(=O)C(C)=C(N)C3=O)N1C[C@@H]1N[C@@H]12 [Mitomycin c] | 31.5
61 | CN1[C@@H]2CCC[C@H]1C[C@@H](NC(=O)c1nn(C)c3ccccc13)C2 [Granisetron] | < 5
62 | C=C1C[C@@H]2[C@H](CC[C@]3(C)C(=O)CC[C@@H]23)[C@@]2(C)C=CC(=O)C=C12 [Exemestane] | < 5
63 | Clc1ccc(CCC(Cn2ccnc2)Sc2c(Cl)cccc2Cl)cc1 (stereo not drawn) [Butoconazole nitrate] | < 5
64 | CCN(CC)CCNC(=O)c1ccc(N)cc1 [Procainamide] | < 5
65 | CN1CCN(CCCN2c3ccccc3Sc3ccc(C(F)(F)F)cc32)CC1 [Trifluoperazine 2HCl] | < 5
66 | CCC1=C[C@@H]2CN(C1)Cc1c([nH]c3ccccc13)[C@@](C(=O)OC)(c1cc3c(cc1OC)N(C)[C@H]1[C@@](O)(C(=O)OC)[C@H](OC(C)=O)[C@]4(CC)C=CCN5CC[C@]31[C@@H]54)C2 [Vinorelbine] | 45.3
67 | O=C(CCCCCCC(=O)Nc1ccccc1)NO [Vorinostat] | < 5
68 | CCCCc1oc2ccccc2c1C(=O)c1cc(I)c(OCCN(CC)CC)c(I)c1 [Amiodarone] | < 5
69 | CSc1ccc2c(c1)N(CCC1CCCCN1C)c1ccccc1S2 (stereo not drawn) [Thioridazine HCl] | < 5
70 | C[N+]1(C)[C@@H]2C[C@@H](OC(=O)C(O)(c3cccs3)c3cccs3)C[C@H]1[C@@H]1O[C@@H]12 [Tiotropium Br] | < 5
71 | CCCOc1ccccc1-c1nc2[nH]nnc2c(=O)[nH]1 [Zaprinast] | < 5
72 | COc1ccc(C(=O)NCc2cccnc2)cc1C(=O)NCc1cccnc1 [Picotamide] | < 5
73 | Cc1oncc1C(=O)Nc1ccc(C(F)(F)F)cc1 [Leflunomide] | < 5
74 | CC(C)C(=O)c1c(C(C)C)nn2ccccc12 [Ibudilast] | < 5
75 | C[C@H](N)[C@H](O)c1ccccc1 [Phenylpropanolamine] | < 5
76 | Nc1nc(N)nc(-c2cc(Cl)ccc2Cl)n1 [Irsogladine maleate] | < 5
77 | CCN(CC)C(=S)SSC(=S)N(CC)CC [Disulfiram] | < 5
78 | C#Cc1cccc(Nc2ncnc3cc(OCCOC)c(OCCOC)cc23)c1 [Erlotinib] | < 5
